A short description of series [1]: LogP measurement by HPLC on reversed phase columns (EEC directive 79/831 Annex V.A8). It counts as physicochemical. Particulars: reversed phase HPLC columns. An outline of the steps:
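Reversed-phase HPLC with LC-UV per EEC directive 79/831 Annex V.A8, linear 10–95% acetonitrile gradient. Aqueous phase was 0.1% formic acid (acidic), 0.001 molar ammonium acetate (neutral) or 0.1% phosphoric acid (acidic), by method.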

The subject of a further series is Phakospora pachyrhizi. The series is described as follows: in vivo preventive test on Phakospora pachyrhizi (soybean rust). The conditions noted are these: Glycine max, 264 h; 500 ppm of active ingredient; preventive spray on young soybean plants, inoculation after 24 hours, evaluated 11 days after inoculation; 0% = control plants, 100% = no disease; read-out: efficacy. As for the experimental part:
Example A: in vivo preventive test on Phakospora pachyrhizi (soybean rust) [table] The active ingredients were made soluble and homogenized in a mixture of Dimethyl sulfoxide/Acetone/ /Tween® 80 and then diluted in water to the desired concentration. The young plants of soybean were treated by spraying the active ingredient prepared as described above. Control plants were treated only with an aqueous solution of Acetone/Dimethyl sulfoxide/ Tween® 80. After 24 hours, the plants were contaminated by spraying the leaves with an aqueous suspension of Phakospora pachyrhizi spores. The contaminated soybean plants were incubated for 24 hours at 24°C and at 100% relative humidity and then for 10 days at 24°C and at 70-80% relative humidity. The test was evaluated 11 days after the inoculation. 0% means an efficacy which corresponds to that of the control plants while an efficacy of 100% means that no disease was observed.

The mark [2] stands for this setting: method [a]: LC-UV, acidic range, 0.1% formic acid in water and acetonitrile as eluent (linear gradient 10% to 95% acetonitrile).
The mark [3] stands for this setting: method [b]: LC-UV, neutral range, 0.001 molar ammonium acetate solution in water and acetonitrile as eluent (linear gradient 10% to 95% acetonitrile).

SMILES strings stand for the structures.

By chromatographic logP is commonly meant lipophilicity estimated from chromatographic retention. A higher chromatographic logP goes with higher lipophilicity.

With `CCc1cc(S(=O)(=O)c2ccccc2C)c(C)cc1N=CN(C)CC` [Example I-091, N-ethyl-N'-[2-ethyl-5-methyl-4-(2-methylphenyl)sulfonylphenyl]-N-methylmethanimidamide], the chromatographic logP in series [1] (setting [2]) was found to be 1.37. For the same compound, in the series with Phakospora pachyrhizi, the pest or weed control at 500 ppm was no less than 70%.
In series [1] (setting [2]), `CCN(C)C=Nc1cc(C)c(Sc2ccccc2F)cc1C1CC1` [Example I-097, N'-[2-cyclopropyl-4-[(2-fluorophenyl)thio]-5-methylphenyl]-N-ethyl-N-methylmethanimidamide] returned a chromatographic logP of 1.8. The pest or weed control at 500 ppm in the series on Phakospora pachyrhizi was no less than 70%.
For `CCN(C)C=Nc1cc(C)c(Sc2ccccc2Cl)cc1Br` [Example I-098, N'-[2-bromo-4-[(2-chlorophenyl)thio]-5-methylphenyl]-N-ethyl-N-methylmethanimidamide] the same measures were 2.05 and no less than 70%.
For `CCN(C)C=Nc1cc(C)c(Sc2ccccc2Cl)cc1C1CC1` [Example I-099, N'-[4-[(2-chlorophenyl)thio]-2-cyclopropyl-5-methylphenyl]-N-ethyl-N-methylmethanimidamide], in that order: 1.99 and no less than 70%.
For the compound `CCN(C)C=Nc1cc(C)c(Sc2ccccc2C#N)cc1C1CC1` [Example I-100, N'-[4-[(2-cyanophenyl)thio]-2-cyclopropyl-5-methylphenyl]-N-ethyl-N-methylmethanimidamide], the chromatographic logP amounted to 1.6 in series [1] (setting [2]) and 4.74 in series [1] (setting [3]). Moreover, in the series with Phakospora pachyrhizi, the pest or weed control at 500 ppm was no less than 70%.
`CCN(C)C=Nc1cc(C)c(Sc2ccccc2C#N)cc1C(C)C` [Example I-101, N'-[4-[(2-cyanophenyl)thio]-2-isopropyl-5-methylphenyl]-N-ethyl-N-methylmethanimidamide]: the results for the chromatographic logP in series [1] (setting [2]) and in series [1] (setting [3]) were 1.72 and 5.3, respectively. The pest or weed control at 500 ppm with Phakospora pachyrhizi is no less than 70%.
For `CCc1cc(Sc2ccccc2C#N)c(C)cc1N=CN(C)CC` [Example I-102, N'-[4-[(2-cyanophenyl)thio]-2-ethyl-5-methylphenyl]-N-ethyl-N-methylmethanimidamide] the same measures were 1.58, 4.95 and no less than 70%.
For `CCc1cc(Sc2ccccc2Cl)c(C)cc1N=CN(C)CC` [Example I-103, N'-[4-[(2-chlorophenyl)thio]-2-ethyl-5-methylphenyl]-N-ethyl-N-methylmethanimidamide], in that order: 1.99, 6.2 and no less than 70%.

For the origin of these results see patent EP3915971A1, “PHENYL-S(O)N-PHENYLAMIDINES AND THE USE THEREOF AS FUNGICIDES” (Bayer Aktiengesellschaft, priority 2020, dated 2021).
